Laboratory results: patent US8841257B2, “Inhibitors of STAT3 and uses thereof” (Board of Regents, The University of Texas System, priority 2009, dated 2014)
Entries after “also recorded” stand apart in the source; their conditions may differ.

How the values were obtained:
[1] = system: Focal Adhesion Kinase (FAK); assay: Phosphorylation of Focal Adhesion Kinase Tyr861 in MDA-MB-468 cells; type: cell-based, human; conditions: 2 hr treatment
Text: Effect of Prodrug on the phosphorylation of Focal Adhesion Kinase (FAK) in MDA-MB-468 breast tumor cells. MDA-MB-468 cells express constitutive phosphorylation of Tyr861 of FAK (Laird, A. et al., Src Family Kinase Activity is Required For Signal Tranducer and Activator of Transcription 3 and Focal Adhesion Kinase Phosphorylation and Vascular Endothelial Growth Factor Signaling In Vivo and For Anchorage-Dependent and Independent Growth Of Human Tumor Cells, Mol Cancer Ther, 2, 461-9(2003). a unique substrate of Src upon recruitment via its SH2 domain (Calalb, M. B., et al, S. K. Focal adhesion kinase tyrosine-861 is a major site of phosphorylation by Src. Biochem Biophys Res Commun 1996, 228, 662-8 (1996.) To test for cross reactivity to the Src SH2 domain, MDA-MB-468 cell extracts were probed for phosphorylation of Tyr861 of FAK.

[2] = system: non-small cell lung cancer cell lines; assay: Lung tumor cell viability assay, NSCLC cell lines; type: cell-based; conditions: 0.25-5.0 μM in DMSO; 72 h
Method: Lung Tumor Cell Viability Assay: H1819, H1299 and H827 lung tumor cells were seeded in 6-well plates at a density of 6×10^4, 4×10^4 and 5×10^4 cells/well, respectively. Prodrugs were dissolved in DMSO to make a stock concentration of 500 μM. The following day the cells were treated either with DMSO alone or with 0.25 μM, 0.5 μM, 1.0 μM, 2.5 μM and 5.0 μM of the compounds from Example 1, Example 16, and Example 22. Seventy two h after treatment with the drug the cells were subjected to cell viability assay using trypan blue. […] Cells were plated and after 24 hr were treated with the compound of Example 16 in DMSO. After 72 hr, cells were counted. Note that vertical axes are different for each plot.

STAT3 [3] = molecular target: T1, STAT3 (Homo sapiens, UniProt P40763); assay: Inhibition of Stat3 tyrosine705 phosphorylation in MDA-MB-468 cells; type: cell-based; design: host or cells: MDA-MB-468 breast tumor cells; conditions: 2 h; for inhibition of Tyr705 phosphorylation of Stat3 (potency in words): prodrug in DMSO
Method: Inhibition of Stat3 tyrosine705 phosphorylation in MDA-MB-468 cells. MDA-MB-468 breast tumor cells (0.4×10^6) were plated onto 35 mm culture dishes and were allowed to grow overnight. Prodrugs were prepared as 10 mM stock solutions in DMSO and aliquots were added to the culture media to give the correct final concentrations. After 2 h the cells were washed with ice cold phosphate buffered saline. Washed cells were treated with lysis buffer (50 mM Hepes, pH 7.4, 150 mM NaCl, 1.5 mM MgCl2, 1 mM EGTA, 100 mM NaF, 10 mM sodium pyrophosphate, 10% glycerol, 1% Triton X-100, 1 mM PMSF, 1 mM Na3VO4, 10 μg/mL leupeptin and 10 μg/mL aprotinin). Cell-free detergent extracts were centrifuged at 15,000 rpm in a microcentriguge for 30 min at 4° C. and the protein concentrations of the supernatants determined. Aliquots containing 12 μg of protein were separated on 8% SDS-PAGE and were transferred to PVDF filters. The filters were blocked with 5% bovine serum albumin and were probed with pStat3^Y705 antibody followed by secondary antibody, whose signal was detected with an enhanced chemiluminescence kit (ECL, Amersham, Chicago, Ill.). Filters were stripped with stripping buffer (62.5 mM Tris, pH 6.8, 2% SDS, and 0.1 M 2-mercaptoethanol) at 50° C. for 30 min. Filters were then probed with total Stat3 antibody and visualized with chemiluminescence as above.

STAT3 [4] = molecular target: T1, STAT3; assay: EGF-stimulated STAT3 phosphorylation in MDA-MB-468 cells; type: cell-based; design: host or cells: MDA-MB-468 breast tumor cells; conditions: 1.5 hr prodrug, then EGF 100 ng/mL 30 min
Method: (§1) Effect of prodrug on the phosphorylation of STAT3, STAT5 and Akt in response to Epidermal Growth Factor stimulation. MDA-MB-468 cells were prepared as above. Prodrugs were prepared as 10 mM stock solutions in DMSO and aliquots were added to the culture media to give the correct final concentrations. After 1.5 hr EGF was added at 100 ng/mL. After 30 minutes cells were collected and lysed and proteins were separated by PAGE and transferred to three PVDF filters as above. The first filter was blocked with 5% bovine serum albumin and probed for total and phosphoStat3 as above. The second filter was probed for phosphoSer473Akt and total Akt using appropriate antibodies and similar detection procedures to those used for STAT3. The third filter was probed for phosphoTyr699 Stat5 and total STAT5 using appropriate antibodies and similar detection procedures to those used for STAT3.

STAT5 = assay: EGF-stimulated STAT5 phosphorylation in MDA-MB-468 cells; type: cell-based, human; conditions: 1.5 hr prodrug, then EGF 100 ng/mL 30 min
Method: as §1

T1 sequence (P40763 whole entry): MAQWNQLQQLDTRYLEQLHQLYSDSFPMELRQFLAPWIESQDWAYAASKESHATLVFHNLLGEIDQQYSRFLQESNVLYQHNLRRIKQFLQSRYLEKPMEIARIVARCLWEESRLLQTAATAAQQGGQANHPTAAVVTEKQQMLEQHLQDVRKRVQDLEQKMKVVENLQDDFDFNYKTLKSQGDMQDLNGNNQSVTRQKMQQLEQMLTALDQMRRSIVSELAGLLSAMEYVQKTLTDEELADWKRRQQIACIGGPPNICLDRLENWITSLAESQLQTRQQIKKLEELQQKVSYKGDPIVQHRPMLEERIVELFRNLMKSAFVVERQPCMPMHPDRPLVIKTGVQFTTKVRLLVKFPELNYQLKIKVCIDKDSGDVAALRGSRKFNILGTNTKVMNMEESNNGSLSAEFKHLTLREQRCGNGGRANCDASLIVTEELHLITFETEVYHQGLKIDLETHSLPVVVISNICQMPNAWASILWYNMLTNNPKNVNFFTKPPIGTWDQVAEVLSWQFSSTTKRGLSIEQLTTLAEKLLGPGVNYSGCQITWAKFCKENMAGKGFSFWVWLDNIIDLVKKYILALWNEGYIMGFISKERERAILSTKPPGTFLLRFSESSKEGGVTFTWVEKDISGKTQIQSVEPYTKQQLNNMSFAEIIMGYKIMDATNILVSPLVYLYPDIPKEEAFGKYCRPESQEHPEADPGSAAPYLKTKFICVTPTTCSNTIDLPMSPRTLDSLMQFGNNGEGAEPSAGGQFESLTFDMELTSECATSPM

| SMILES | phosphorylation of FAK Tyr861 [1] | growth / viability of NSCLC cell lines [2] | concentration as low as which partial inhibition of STAT3 phosphorylation was seen (STAT3 [3]) [nM] | concentration at which complete inhibition of STAT3 phosphorylation occurred (STAT3 [3]) [nM] | inhibition of Tyr705 phosphorylation of Stat3 (potency in words) (STAT3 [3]) | EGF-induced increase in Stat3 phosphorylation (STAT3 [4]) | Stat5 phosphorylation after EGF (STAT5) |
| --- | --- | --- | --- | --- | --- | --- | --- |
| C/C(=C\C(=O)N[C@H]1CCc2cccc3c2N(C1=O)[C@H](C(=O)N[C@H](C)CCC(N)=O)C3)c1ccc(C(F)(F)P(=O)(OCOC(=O)C(C)(C)C)OCOC(=O)C(C)(C)C)cc1 [Example 1, (2E)-3-[4-[[bis[(2,2-dimethyl-1-oxopropoxy)methoxy]phosphinyl]difluoromethyl]phenyl]-but-2-enoyl-Haic-(R)-4-aminopentamide] | no reduction; also recorded: do not inhibit | inhibition | 10 | 500 | very potent inhibitors | effective at inhibiting | no effect |
| CCCC[C@H](NC(=O)/C=C(\C)c1ccc(C(F)(F)P(=O)(OCOC(=O)C(C)(C)C)OCOC(=O)C(C)(C)C)cc1)C(=O)N1C[C@H]2CC2[C@H]1C(=O)N[C@@H](CCC(N)=O)[C@@H](C)OCc1ccccc1 (stereo partly drawn) [Example 16, (2E)-3-[4-[[bis[(2,2-dimethyl-1-oxopropoxy)methoxy]phosphinyl]difluoromethyl]phenyl]-but-2-enoyl-norleucinyl-(2S,3R,4S)-methanoprolinyl-(4S,5R)-4-amino-5-benzyloxyhexamide] | no reduction; also recorded: do not inhibit | inhibition of growth | 10 | 500 | very potent inhibitors | effective at inhibiting | no effect |
